In patent US20020086895A1, “Methods of treating fungal infections” (priority 1985, published 2002):

Tests used:
[1] = tested on: C. albicans; experiment: Antifungal screen of matrix-synthesis aurones in 96-well plates, C. albicans; type: cell-based, Candida albicans
Experimental: (§1) Thirty-eight 96-well plates were prepared with the above samples and tested against both C. albicans and A. fumigatus at either 8 μg/ml or 12.5 μg/ml. Plates with high activity were retested at the same concentration to confirm activity.
(§2) These compounds have formulae where W′ is OH, V is 3′,4′-(1,1-dimethylpropyloxy) to form a dihydropyran series, and X is selected from 3,4-dimethoxyphenyl, 4-t-butylphenyl, 2(prop-2-enyloxy)phenyl, 3-phenoxyphenyl, 3-ethoxy-4-hydroxyphenyl, 6-cyclohexenyl, and norborn-4-yl.

[2] = tested on: A. fumigatus; experiment: Antifungal screen of matrix-synthesis aurones in 96-well plates, A. fumigatus; type: cell-based, Aspergillus fumigatus
Experimental: as §1, §2

[3] = tested on: Staphylococcus aureus KLE820; experiment: Activity of selected aurones against Staphylococcus aureus KLE820; type: cell-based; conditions: read-out: % Inhibition of growth at 10 ug/ml
Text: Compounds described herein also have activity against bacteria.

[4] = tested on: nine isolates (Aspergillus and Candida); experiment: Standard controls of the antifungal assays of Example 12; type: cell-based
Experimental: Test compounds were tested against nine isolates in an eight-point dose response assay ranging from 50 μg/ml to 0.39 μg/ml. Aspergillus MIC's (minimum inhibitory concentrations) were scored visually after 48 and 72 hours at 37° C. […] Amphotericin B (2.5 μg/ml) and 5-flucytosine (2.0 μg ml) were standard controls for each antifungal assay. […] The results are shown below in Table 4, MIC values in μg/ml after 72 hours. HFF toxicity was analyzed after a 24 hour incubation at 37° C. (5% CO2). MTS/PMS was added, and the sample absorbance was read at 450 nm.

[5] = tested on: Candida albicans (strain ATCC #90028); experiment: Inhibition of Candida spp. culture (XTT); type: cell-based; conditions: for C. albicans minimum inhibitory concentration (MIC) compared with reported ranges: assay validation
Experimental: (§3) Candida albicans (strain ATCC #90028), Candida krusei (strain ATCC #90030), and Torulopsis (Candida) glabrata (strain ATCC #6258) were subcultured from cryopreserved stocks onto sabourand dextrose agar plates. Blastoconidia were suspended into RPMI-MOPS (media) and inoculated (500 cfu/well) into 96-well plates containing test compounds in a final volume of 100 μL/well. After 22 hours at 35° C., 25 μL of XTT (2,3-bis(2-methoxy-4-nitro-5-sulfophenyl)-5-[(phenylamino)carbonyl]-2H-tetrazolium hydroxide), (100 μg/mL) with PMS (phenazine methyl sulfate, 5 μM) were added to each well, followed by 2 hours of shaking. Growth was assessed spectrophotometrically by measuring the appearance of soluble formazan stain at 450 nm using an Emax microplate reader.

[6] = tested on: Torulopsis (Candida) glabrata (strain ATCC #6258); experiment: Inhibition of Candida spp. culture (XTT); type: cell-based; conditions: T. (C.) glabrata, 22 hours at 35° C., read-out: antifungal MIC
Experimental: as §3

[7] = tested on: Candida krusei (strain ATCC #90030); experiment: Inhibition of Candida spp. culture (XTT); type: cell-based; conditions: Pichia kudriavzevii, ATCC90030, C. krusei, 22 hours at 35° C., read-out: antifungal MIC
Experimental: as §3

[8] = tested on: chitin synthase II (CS II); experiment: Inhibition of chitin synthase, CS II only; type: biochemical, C. albicans; conditions: 10 μM Nikkomycin Z, pH 7.5, 5 mM MgCl2
Experimental: Plasma membrane was purified from C. albicans (ATCC #90028) according to Orlean, J. Biol. Chem. 262:5732-5-1987. To minimize proteolysis during plasma membrane preparation, 1% fetal calf serum was incorporated into the homogenization buffer. Plasma membrane was activated by trypsin (125 μg/mg protein) in the presence of 1.5 mM UDP-GLcNAc(c) at 25° C. for 5 minutes. The reaction was stopped by the addition of soybean trypsin inhibitor. The activated membranes (0.125 mg membrane protein/mL) were […], 40 mM GlcNAc, 4 mM ^14C-UDP-GlcNAc (specific: 0.25 mCi/mmol) (New England Nuclear Boston, Mass.) and plant extract (100 μg/mL). The incubation was carried out at 37° C. for 1 hour and terminated with the addition of trichloroacetic acid (10%). The reaction mixture was transferred to a pre-wetted glass fiber filter. The filter was washed with 4×200 μL of a 7:3 solution of 95% EtOH and 1 M acetic acid. The filter was dried under a heat lamp and counted in a Microbeta counter (Wallac, Gaithersburg, Md.) after the addition of 25 μL OPTIPHASE SUPERMIX™ (Wallac) scintillation fluid. Nikkomycin Z and Polyoxin D were used as positive controls (Calbiochem, San Diego, Calif.). Vehicle control was carried out with the same amount of DMSO (2%).
The SOP assay described above was modified to pH 7.5 and 5 mM MgCl2 (instead of CoCl2). […]

Row | SMILES | CA percent inhibition ([1]; @12.5 μg/ml) | AF percent inhibition ([2]; @12.5 μg/ml) | further results
1 | C=CCOc1ccccc1C=C1Oc2cc(O)c(CC=C(C)C)c(O)c2C1=O | 59% | 40% | –
2 | CC(C)=CCc1c(O)cc2c(c1O)C(=O)C(=Cc1cccc(O)c1O)O2 | 94% | 31% | –
3 | CC(C)=CCc1c(O)cc2c(c1O)C(=O)C(=Cc1ccc(O)c(O)c1O)O2 | 89% | 0% | –
4 | C=CCOc1ccccc1C=C1Oc2cc(O)cc(O)c2C1=O | 0% | 43% | –
5 | O=C1C(=Cc2ccc(O)c(O)c2)Oc2cc(O)cc(O)c21 | 95% | 36% | –
6 | O=C1C(=Cc2ccc(Oc3ccccc3)cc2)Oc2cc(O)cc(O)c21 | 57% | 48% | –
7 | O=C1C(=Cc2cccc(O)c2O)Oc2cc(O)cc(O)c21 | 79% | 27% | –
8 | O=C1C(=Cc2ccc(O)c(O)c2O)Oc2cc(O)cc(O)c21 | 94% | 44% | –
9 | CC(C)=CCc1c(O)cc2c(c1O)C(=O)C(=Cc1cc(C(C)(C)C)c(O)c(C(C)(C)C)c1)O2 | 47% | 48% | –
10 | CC(C)=CCc1c(O)cc2c(c1O)C(=O)C(=Cc1ccc(F)cc1F)O2 | 0% | 40% | –
11 | CCOc1ccc(C=C2Oc3cc(O)c(CC=C(C)C)c(O)c3C2=O)cc1OC | 25% | 49% | –
12 | CCOc1ccccc1C=C1Oc2cc(O)c(CC=C(C)C)c(O)c2C1=O | 25% | 51% | –
13 | COc1ccccc1C=C1Oc2cc(O)c(CC=C(C)C)c(O)c2C1=O | 15% | 39% | –
14 | CC(C)(C)c1cc(C=C2Oc3cc(O)cc(O)c3C2=O)cc(C(C)(C)C)c1O | 17% | 35% | –
15 | O=C1C(=Cc2ccc(F)cc2F)Oc2cc(O)cc(O)c21 | 0% | 43% | –
16 | CC(C)=CCc1c(O)cc2c(c1O)C(=O)C(=Cc1c(C)cccc1C)O2 | 7% | 0% | –
17 | CC(C)=CCc1c(O)cc2c(c1O)C(=O)C(=Cc1ccccc1C)O2 | 11% | 0% | –
18 | CC(C)=CCc1c(O)cc2c(c1O)C(=O)C(=Cc1ccc(C)cc1)O2 | CA 18% AF 18% @12.5 μg/ml | CA 18% AF 18% @12.5 μg/ml | –
19 | CCc1ccc(C=C2Oc3cc(O)c(CC=C(C)C)c(O)c3C2=O)cc1 | 31% | 41% | –
20 | CC(C)=CCc1c(O)cc2c(c1O)C(=O)C(=Cc1c(C)cc(C)cc1C)O2 | 51% | 53% | –
21 | CC(C)=CCc1c(O)cc2c(c1O)C(=O)C(=Cc1cc(C)cc(C)c1)O2 | CA 26% AF | #13% @12.5 μg/ml | –
22 | Cc1cc(C)c(C=C2Oc3cc(O)cc(O)c3C2=O)c(C)c1 | 6% | 48% | –

Row | SMILES | CA percent inhibition ([1]; @12.5 μg/ml) | AF percent inhibition ([2]; @12.5 μg/ml) | further results
23 | Cc1cc(C)cc(C=C2Oc3cc(O)cc(O)c3C2=O)c1 | CA 4% AF | #17% @12.5 μg/ml | –
24 | CCc1ccc(C=C2Oc3cc4c(c(O)c3C2=O)CCC(C)(C)O4)cc1 | – | – | CA percent inhibition ([1]; @8 μg/ml): 73%; AF percent inhibition ([2]; @8 μg/ml): 68%
25 | Cc1cc(C)c(C=C2Oc3cc4c(c(O)c3C2=O)CCC(C)(C)O4)c(C)c1 | – | – | CA percent inhibition ([1]; @8 μg/ml): 0%; AF percent inhibition ([2]; @8 μg/ml): 28%
26 | Cc1cc(C)cc(C=C2Oc3cc4c(c(O)c3C2=O)CCC(C)(C)O4)c1 | – | – | CA percent inhibition ([1]; @8 μg/ml): CA 0% AF; AF percent inhibition ([2]; @8 μg/ml): #11% @8 μg/ml
27 | C=CCc1c(O)cc2c(c1O)C(=O)C(=Cc1c(C)cccc1C)O2 | – | – | CA percent inhibition ([1]; @8 μg/ml): 7%; AF percent inhibition ([2]; @8 μg/ml): 49%
28 | C=CCc1c(O)cc2c(c1O)C(=O)C(=Cc1ccccc1C)O2 | – | – | CA percent inhibition ([1]; @8 μg/ml): 4%; AF percent inhibition ([2]; @8 μg/ml): 11%
29 | C=CCc1c(O)cc2c(c1O)C(=O)C(=Cc1ccc(C)cc1)O2 | – | – | CA percent inhibition ([1]; @8 μg/ml): 10%; AF percent inhibition ([2]; @8 μg/ml): 47%
30 | C=CCc1c(O)cc2c(c1O)C(=O)C(=Cc1ccc(CC)cc1)O2 | – | – | CA percent inhibition ([1]; @8 μg/ml): 16%; AF percent inhibition ([2]; @8 μg/ml): 47%
31 | C=CCc1c(O)cc2c(c1O)C(=O)C(=Cc1c(C)cc(C)cc1C)O2 | – | – | CA percent inhibition ([1]; @8 μg/ml): 16%; AF percent inhibition ([2]; @8 μg/ml): 7%
32 | C=CCc1c(O)cc2c(c1O)C(=O)C(=Cc1cc(C)cc(C)c1)O2 | – | – | CA percent inhibition ([1]; @8 μg/ml): CA 42% AF; AF percent inhibition ([2]; @8 μg/ml): #81% @8 μg/ml
33 | COc1ccc(/C=C2\Oc3cc(O)c(C/C=C/c4ccccc4)c(O)c3C2=O)cc1 | – | – | inhibition at 10 µg/mL [3]: 83%
34 | O=C1/C(=C/c2cc([N+](=O)[O-])ccc2O)Oc2cc(O)c(Cc3ccccc3)c(O)c21 | – | – | inhibition at 10 µg/mL [3]: 100%
35 | O=C1/C(=C/c2c(Br)cc(Br)c(O)c2Br)Oc2cc(O)c(Cc3ccccc3)c(O)c21 | – | – | inhibition at 10 µg/mL [3]: 100%
36 | O=C1/C(=C/c2cc(Cl)cc(Cl)c2O)Oc2cc(O)c(Cc3ccccc3)c(O)c21 | – | – | inhibition at 10 µg/mL [3]: 100%
37 | CCCCCOc1ccc(/C=C2\Oc3cc(O)cc(O)c3C2=O)cc1 | – | – | inhibition at 10 µg/mL [3]: 98.6%
38 | C=CCc1c(O)cc2c(c1O)C(=O)/C(=C/c1ccc(-c3ccccc3C(F)(F)F)o1)O2 | – | – | inhibition at 10 µg/mL [3]: 76.5%
39 | Nc1nc(=O)[nH]cc1F [5-flucytosine] | – | – | inhibition by standard control ([4]; 2.0 μg ml): total inhibition; C. albicans minimum inhibitory concentration (MIC) compared with reported ranges [5]: within reported ranges
40 | C[C@@H]1[C@H](O)[C@@H](C)/C=C/C=C/C=C/C=C/C=C/C=C/C=C/[C@H](O[C@@H]2O[C@H](C)[C@@H](O)[C@H](N)[C@@H]2O)C[C@@H]2O[C@](O)(C[C@@H](O)C[C@@H](O)[C@H](O)CC[C@@H](O)C[C@@H](O)CC(=O)O[C@H]1C)C[C@H](O)[C@H]2C(=O)O [Amphotericin B] | – | – | inhibition by standard control ([4]; 2.5 μg/ml): total inhibition; C. albicans minimum inhibitory concentration (MIC) compared with reported ranges [5]: within reported ranges
41 | CC(C)=CCc1c(O)cc2c(c1O)C(=O)/C(=C\c1cc(O)c(O)cc1-c1c(O)cc3c(c1O)C(=O)/C(=C\c1ccc(O)c(O)c1)O3)O2 [Formula (VI)] | – | – | MIC [6]: 1.74 µg/mL; MIC [7]: 7.48 µg/mL; MIC ([5]; Candida albicans, ATCC90028, C. albicans, XTT, 22 hours at 35° C., read-out: antifungal MIC): 25 µg/mL
42 | C[C@@H]([C@H](N)C(=O)N[C@H](C(=O)O)[C@H]1O[C@@H](n2ccc(=O)[nH]c2=O)[C@H](O)[C@@H]1O)[C@H](O)c1ccc(O)cn1 [Nikkomycin Z, reference compound] | – | – | CS II remaining [8]: 75%; C. albicans minimum inhibitory concentration (MIC) compared with reported ranges [5]: within reported ranges
43 | CC(C)=CCc1c(O)cc2c(c1O)C(=O)C(=Cc1ccc(O)c(O)c1)O2 [drawing 36+drawing 32] | 92% | 0% | –
44 | NC(=O)OC[C@H](O)[C@@H](O)[C@H](N)C(=O)N[C@H](C(=O)O)[C@H]1O[C@@H](n2cc(C(=O)O)c(=O)[nH]c2=O)[C@H](O)[C@@H]1O [polyoxin D] | – | – | C. albicans minimum inhibitory concentration (MIC) compared with reported ranges [5]: within reported ranges
